{"source": "patent US20070142396A1", "about": "“Treatment of pain with 1-[3-[4-(3-chlorophenyl)-1-piperazinyl]propyl]-5-methoxy-3,4-dihydro-2(1H)-quinolone or salt thereof” (Vela Pharmaceuticals, Inc., priority 2005, published 2007)", "key": {"[1]": {"system": "rats with L5 spinal nerve ligation (SNL model)", "experiment": "Spinal nerve ligation (L5) neuropathic pain model, mechanical threshold with von Frey filaments (Example 4)", "assay_type": "in vivo, rat", "conditions": "100 mg/kg oral", "text": "A total of 18 Sprague-Dawley (CD sub-strain) young adult (weight: 150-175 g) male rats were purchased from Harlan Sprague Dawley Company (Indianapolis, Ind.), Alabama colony. The rats were kept three per cage and had free access to food and water. Animals were kept in a room with a reversed light-dark cycle (light: 8:00 PM-8:00 AM) for 1 week before experimental manipulations. Ten rats were allocated to the present study. Eight rats were allocated to the study of Example 5, below.\nThe spinal nerve ligation (SNL) model of neuropathic pain was produced in all rats as described by Kim and Chung (Pain, 50, 355-363, 1992). Briefly, under gaseous anesthesia using halothane (3% for induction and 1.5% for maintenance) in oxygen, the left L5 spinal nerve was exposed by removing the paraspinal muscles and the transverse process of the L6 vertebra. The very proximal portion of the L5 spinal nerve was tightly ligated with 6-0 silk suture. The wounds were closed and anesthesia was discontinued. Rats were kept on a heated blanket until they had completely recovered from anesthesia.\nOPC-14523 was dispersed in 0.5% tragacanth in distilled water at 20 mg/ml. It was administered as a oral injection in a dose of 100 mg/kg body weight. Gabapentin was prepared at 10 mg/ml in saline and was administered at 50 mg/kg body weight i.p. Gabapentin is a drug that was originally developed as an anticonvulsant but is now widely used as an analgesic for neuropathic pain (Abdi et al., Anesthesia & Analgesia 87:1360-1366 (1998)).\nTen rats were utilized in a Latin-square-design study comparing the activity of OPC-14523 and other compounds against neuropathic pain. Behavioral tests were conducted twice (1 day and 1 hour) before, as well as 1 and 4 days after, the neuropathic surgery. […] The ten rats were randomly divided into five groups of two rats each. […]\nThis procedure was repeated five times. […] The result was that all ten animals received each of the indicated five compounds in random order and then had mechanical thresholds determined at the indicated times.\nBehavioral tests were conducted in a non-blind fashion. The foot withdrawal threshold to mechanical stimuli applied to the paw (mechanical threshold) was measured, as an indicator of mechanical sensitivity of the affected paw. The foot withdrawal threshold was measured using von Frey filaments. […] The mechanical thresholds were measured by using the “up-and-down” method (Chaplan et al., J. Neurosci. Methods 53(1):55-63, 1994), following the procedures described in previous studies (Park et al., Pain 87(2):171-179, 2000; Xie et al., J. Pain 2(5):270-278, 2001; Baik et al., J. Pain 4:212-221, 2003). […]"}, "[2]": {"system": "rats with spinal nerve ligature (Chung neuropathic pain model)", "experiment": "Chung neuropathic pain model, cold allodynia on cold plate (Example 3)", "assay_type": "in vivo, rat", "conditions": "cold plate", "text": "The rats used in this experiment were the same rats used in Example 2. The materials and methods for this experiment were identical to those for Example 2 with the following exceptions: there was a 1-week washout between the two experiments, and the rats weighed 290-403 g at the start of this experiment. Prior to receiving drug treatment, all animals were submitted to tactile stimulation and assigned to treatment groups matched on the basis of their pain response. No account was taken of the treatment administered during the first experiment in assigning animals to treatment groups for this experiment.\nAll of the substances were administered orally. Morphine, dissolved in distilled water, was administered at 128 mg/kg dose p.o. Rats were tested 30 minutes, 1 hour, 2 hours, and 4 hours after administration of the substances.\nBehavioral testing was carried out by measuring cold allodynia using an apparatus consisting of a cold plate maintained at 4±1° C. Rats were individually placed on the cold plate for a period of 5 minutes. The latency to the first paw withdrawal response and the number and total duration of withdrawal responses in 5 minutes were recorded for both the lesioned and the non-lesioned hindpaws."}}, "data": [{"smiles": "COc1cccc2c1CCC(=O)N2CCCN1CCN(c2cccc(Cl)c2)CC1", "note": "[OPC-14523, 1-[3-[4-(3-chlorophenyl)-1-piperazinyl]propyl]-5-methoxy-3,4-dihydro-2(1H)-quinolone]", "values": [{"measurement": "level of mechanical threshold reached relative to level prior to ligation", "setting": "[1]", "result": "comparable to the level observed prior to ligation"}, {"measurement": "effect on mechanical threshold of the lesioned paw for foot withdrawals", "setting": "[1]; 0.5-6 hours", "result": "significantly increased"}, {"measurement": "decrease of number of withdrawal responses", "setting": "[2]; 30 mg/kg p.o., lesioned paw, 30 minutes, p<0.01", "result": 50, "unit": "%"}, {"measurement": "change of number of withdrawal responses", "setting": "[2]; 30 mg/kg p.o., lesioned paw, 4 hours, p<0.05", "result": "−48", "unit": "%"}, {"measurement": "change of total duration of withdrawal responses", "setting": "[2]; 100 mg/kg p.o., 2 hours, p<0.05", "result": "−95", "unit": "%"}, {"measurement": "change of latency to paw withdrawal", "setting": "[2]; 100 mg/kg p.o., lesioned paw, 30 minutes, p<0.01", "result": "+140%"}, {"measurement": "decrease of number of withdrawal responses", "setting": "[2]; 100 mg/kg p.o., lesioned paw, 30 minutes, p<0.05", "result": 64, "unit": "%"}, {"measurement": "change of latency to paw withdrawal", "setting": "[2]; 100 mg/kg p.o., lesioned paw, 1 hour, p=0.24", "result": "+183%"}]}]}
